One compound from PMC3654204, “2-Aminoethoxydiphenyl borate activates the mechanically gated human KCNK channels KCNK 2 (TREK-1), KCNK 4 (TRAAK), and KCNK 10 (TREK-2)” (Frontiers in Pharmacology, 2013) can be followed below.

Structures are written as SMILES.

Common to all, as to assay: two-electrode voltage clamp, Xenopus oocytes, current at +[…] mV
Holding throughout (type): cell-based

The target in test [1] is T1, hKCNK2 (hTREK-1) (Homo sapiens, UniProt O95069).
T1 construct: gene KCNK2; full-length cDNA clone in pDNR-dual purchased from Imagenes, subcloned into pSGEM; cRNA injected in Xenopus laevis oocytes; K2P channels are homodimers
T1 sequence (O95069 1-426): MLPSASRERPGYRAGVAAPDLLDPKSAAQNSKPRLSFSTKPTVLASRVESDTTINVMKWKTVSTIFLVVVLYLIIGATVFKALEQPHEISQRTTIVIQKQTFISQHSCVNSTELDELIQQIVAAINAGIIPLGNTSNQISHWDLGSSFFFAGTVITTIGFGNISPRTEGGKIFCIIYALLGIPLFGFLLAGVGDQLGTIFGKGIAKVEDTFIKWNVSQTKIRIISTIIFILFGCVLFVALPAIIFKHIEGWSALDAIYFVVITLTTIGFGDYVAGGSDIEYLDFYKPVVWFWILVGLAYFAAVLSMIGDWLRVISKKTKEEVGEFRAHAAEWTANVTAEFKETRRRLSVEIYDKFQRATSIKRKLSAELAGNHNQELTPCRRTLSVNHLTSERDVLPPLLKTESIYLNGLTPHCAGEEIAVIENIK

Test [2] concerns the target T2, hKCNK4 (hTRAAK) (Homo sapiens, UniProt Q9NYG8).
T2 construct: gene KCNK4; full-length cDNA clone in pBluescript SK+ purchased from Imagenes; cRNA injected in Xenopus laevis oocytes, pCDNA3 in HEK293; K2P channels are homodimers
T2 sequence (Q9NYG8 1-393): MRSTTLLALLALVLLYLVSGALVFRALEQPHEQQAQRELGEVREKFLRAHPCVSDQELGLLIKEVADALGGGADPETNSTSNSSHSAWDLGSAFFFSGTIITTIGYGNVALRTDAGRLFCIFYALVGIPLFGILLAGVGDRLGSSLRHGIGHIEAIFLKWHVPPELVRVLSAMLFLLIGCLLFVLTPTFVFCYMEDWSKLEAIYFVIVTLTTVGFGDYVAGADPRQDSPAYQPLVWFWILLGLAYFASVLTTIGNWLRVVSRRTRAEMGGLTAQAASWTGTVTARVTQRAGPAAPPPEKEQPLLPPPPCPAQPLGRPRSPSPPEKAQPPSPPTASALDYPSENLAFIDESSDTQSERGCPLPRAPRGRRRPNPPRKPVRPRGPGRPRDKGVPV
Particulars: activator; frog Ringer's solution, pH 7.2; EC50 could not be determined; also active in inside-out HEK293 patches.

Test [3] deals with T3, hKCNK10 (TREK-2) (Homo sapiens, UniProt P57789).
T3 construct: gene KCNK10; full-length cDNA clone purchased from Imagenes, subcloned into pSGEM (cRNA, Xenopus laevis oocytes) and pCDNA3 (HEK293); K2P channels are homodimers
T3 sequence (P57789 1-538): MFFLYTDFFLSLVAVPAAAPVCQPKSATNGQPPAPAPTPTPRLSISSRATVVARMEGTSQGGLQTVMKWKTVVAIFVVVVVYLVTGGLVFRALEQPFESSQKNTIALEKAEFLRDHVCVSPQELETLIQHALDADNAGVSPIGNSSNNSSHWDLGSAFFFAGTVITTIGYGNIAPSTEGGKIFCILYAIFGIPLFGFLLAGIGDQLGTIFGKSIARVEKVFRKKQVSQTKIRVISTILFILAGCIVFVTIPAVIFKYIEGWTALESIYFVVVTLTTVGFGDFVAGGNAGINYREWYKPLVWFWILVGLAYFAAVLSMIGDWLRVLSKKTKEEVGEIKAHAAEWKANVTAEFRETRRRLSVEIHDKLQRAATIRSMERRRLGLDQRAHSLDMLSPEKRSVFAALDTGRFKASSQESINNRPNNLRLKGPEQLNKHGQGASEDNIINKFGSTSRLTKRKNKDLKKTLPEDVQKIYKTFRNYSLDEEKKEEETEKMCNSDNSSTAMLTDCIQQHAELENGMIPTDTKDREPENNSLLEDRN

With `NCCOB(c1ccccc1)c1ccccc1` [2-APB], the EC50 in test [1] stood at 486 ± 135 µM; in test [3], 1220 ± 390 µM. Moreover, in test [2], the “fold of basal current at 1 mM” value is 2.68 ± 0.2 fold.
